Assay results: article PMC10295666 (Bioengineering, 2023)
Positions of bridges follow the written chain, without caps; N, C: chain ends. Residues, ends and D or L forms follow the SMILES beside them. No end group written: not given here.

How the values were obtained:
[1] = test system: normal human liver cell line 7701; experiment: Toxicity on normal liver cells; format: cell-based; conditions: QSG-7701 cells
Method: Normal human liver cells QSG-7701 and Hepatocellular Carcinoma Cell lines 7721, Huh7, MHCC97H, MHCC97L, and HepG2 were all obtained from the Institute of Biomedical Sciences, Jinan University. All cells were cultured in DMEM medium (Gibco, Grand Island, NE, USA) supplemented with 10% fetal bovine serum (Gibco, Grand Island, NE, USA). The cell lines were incubated in a humidified atmosphere with 5% CO2 at 37 °C.
Cells in the logarithmic growth phase with good viability were seeded into 96-well plates at a density of 2500 cells per well and incubated for 24 h at 37 °C with 5% CO2. The old medium was removed, and the cells were starved with DMEM medium containing 0.5% FBS for 24 h. Peptides were diluted with 0.5% starved medium to different concentrations and added to each well with the same volume. The cells were then incubated for an additional 48 h at 37 °C. After removing the medium, 100 μL of CCK-8 working solution was added to each well, and the plate was incubated for 1 h at 37 °C with 5% CO2. Finally, the absorbance at 450 nm of each well was measured using a multifunctional microplate reader. Cell viability (%) was equal to (Asample − Ablank)/(Acontrol − Ablank) × 100%. […]
Cells in the logarithmic growth phase were seeded at a density of 1000 cells per well in 6-well plates and cultured for 24 h. […] After air-drying the plate, the colonies were photographed and counted.

[2] = serum obtained from healthy individuals; conditions: 37 °C, up to 1440 min
[3] = In vitro serum stability assay of peptides (HPLC-UV / LC-MS); format: in vitro ADME; conditions: human; serum from healthy individuals mixed with peptide 9:1, peptide 1 mg/mL, 37 °C, 0-1440 min, 10% TFA precipitation, HPLC-UV (C18) peak area
Method: The serum obtained from healthy individuals was centrifuged at a low speed and mixed with peptides at a ratio of 9:1 to achieve a peptide concentration of 1 mg/mL. The peptide–serum mixture was then incubated at 37 °C for different periods. After reaching the pre-determined time point (0, 10, 20, 30, 60, 120, 240, 480, 960, or 1440 min), pure trifluoroacetic acid was added to each sample to reach a final concentration of 10%. The mixture was then vortexed and centrifuged for 10 min at 13,000 rpm, and the supernatant (10 μL) was collected and stored in HPLC vials for analysis.
HPLC-UV analysis was performed using a C18 analytical column (Thermo Acclaim300 C18 LC ColuMns, 4.6 mm diameter, 150 mm length, Catalog #: 060266) and a Waters ACQUITY Arc Bio instrument, following the method shown in Table 1. The target peak was determined based on the retention time of pure peptides, and on this basis, detect peptides were degraded at different times and their peak area recorded to generate a degradation curve. The degradation rate of peptides was equal to (Areasample − Areablank)/(Areacontrol − Areablank) × 100%. The area of the blank was equal to the peak area detected after mixing peptides with ultrapure water at the same initial concentration. The signal-to-noise ratio of all collected data was greater than 10. […]

[4] = test system: MHCC97L transplant tumors; experiment: MHCC97L subcutaneous xenograft model; conditions: 25 mg/kg tail vein injection, monitored every two days for 14 days, n = 4
Method: Male BALB/c-nude mice were purchased from Guangdong GemPharmatech Co., Ltd. These mice were fed with food and purified water at room temperature in the SPF laboratory. MHCC97L cells (0.1 mL of physiological saline containing 1 × 10^7 cells) were subcutaneously injected into the armpit of 5-week-old male BALB/c-nude mice. Tumor volume and weight were measured every 2 days, and tumor volume was calculated using the following formula: (short axis)^2 × (long axis)/2. When the tumor volume reached approximately 50 mm^3, these mice were weighed and randomly divided into 3 groups (n = 4): the model group, the SAIF group (25 mg/kg), and the ctSAIF group (25 mg/kg). SAIF and ctSAIF were administered via tail vein injection at a dose of 25 mg/kg. The peptide was dissolved in saline solution to 5 mg/mL, and the dosage volume of each mouse was calculated using the following formula: (25 mg/kg × body weight)/(5 mg/mL). After 14 days of treatment, the mice were sacrificed, and the tumors were collected for histopathological examination.

| Compound | toxicity on normal human liver cell line 7701 [1] | fragment found [2] | half-life at 1 mg/mL [3] [min] | weight of nude mice during treatment [4] |
| --- | --- | --- | --- | --- |
| KEIDDLNLKVFDLKGKFKRPPLKRVRMSADAML [SAIF] | no significant toxicity |  |  |  |
| KEIDDLNLKVFDLKGKFKRPPLKRVRMSADAML |  | tSAIF (KGKFKRPPLKRVRMSADAML), 2 h |  |  |
| CSCC[C@@H]1NC(=O)[C@H](C)NC(=O)[C@H](CC(=O)O)NC(=O)[C@H](C)NC(=O)[C@H](CO)NC(=O)[C@H](CCSC)NC(=O)[C@H](CCCNC(=N)N)NC(=O)[C@H](C(C)C)NC(=O)[C@H](CCCNC(=N)N)NC(=O)[C@H](CCCCN)NC(=O)[C@H](CC(C)C)NC(=O)[C@@H]2CCCN2C(=O)[C@@H]2CCCN2C(=O)[C@H](CCCNC(=N)N)NC(=O)[C@H](CCCCN)NC(=O)[C@H](Cc2ccccc2)NC(=O)[C@H](CCCCN)NC(=O)CNC(=O)[C@H](CCCCN)NC(=O)[C@@H](N)CSSC[C@@H](C(=O)O)NC(=O)[C@H](CC(C)C)NC1=O [ctSAIF] (H-CKGKFKRPPLKRVRMSADAMLC-OH; disulfide 1-22) | no significant toxicity |  | ~360 | no significant changes |
